Measured values published in ChEMBL document CHEMBL1148696, “Synthesis, characterization, cytotoxicity, antibacterial and antifungal evaluation of some new platinum (IV) and palladium (II) complexes of thiodiamines” (2007).
In brackets after ≈: the same amount, converted by molar mass.

Legend:
[1] = test system: Aspergillus flavus; test: Antifungal activity against Aspergillus flavus after 10 hrs by spore germination inhibition assay; type: functional
[2] = test system: Aspergillus niger; test: Antifungal activity against Aspergillus niger after 10 hrs by spore germination inhibition assay; type: functional
[3] = test system: Aspergillus fumigatus; test: Antifungal activity against Aspergillus fumigatus after 48 hrs by micro-broth dilution method; type: functional
[4] = test system: Aspergillus flavus; test: Antifungal activity against Aspergillus flavus after 48 hrs by micro-broth dilution method; type: functional
[5] = test system: Aspergillus fumigatus; test: Antifungal activity against Aspergillus fumigatus after 10 hrs by spore germination inhibition assay; type: functional
[6] = test system: Aspergillus niger; test: Antifungal activity against Aspergillus niger after 48 hrs by micro-broth dilution method; type: functional
[7] = test system: Escherichia coli; test: Antibacterial activity against Escherichia coli by micro dilution method; type: functional, organism-based
[8] = test system: Escherichia coli; test: Antibacterial activity against Escherichia coli after 18 hrs by disk diffusion method; type: functional, organism-based

Molecule	MIC [1]	MIC [2]	MIC [3]	MIC [4]	MIC [5]	MIC [6]	MIC [7]	inhibition zone (IZ) [8]
C[C@@H]1[C@H](O)[C@@H](C)/C=C/C=C/C=C/C=C/C=C/C=C/C=C/[C@H](O[C@@H]2O[C@H](C)[C@@H](O)[C@H](N)[C@@H]2O)C[C@@H]2O[C@](O)(C[C@@H](O)C[C@@H](O)[C@H](O)CC[C@@H](O)C[C@@H](O)CC(=O)O[C@H]1C)C[C@H](O)[C@H]2C(=O)O [AMPHOTERICIN B]	5 µg/mL (≈ 5.41 µM)	5 µg/mL (≈ 5.41 µM)	5 µg/mL (≈ 5.41 µM)	5 µg/mL (≈ 5.41 µM)	5 µg/mL (≈ 5.41 µM)	5 µg/mL (≈ 5.41 µM)	–	–
GENTAMICIN	–	–	–	–	–	–	1 µg	16 mm
